ChEMBL document CHEMBL2331138, “Isolation and structures of axistatins 1-3 from the Republic of Palau marine sponge Agelas axifera Hentschel ” (2013)
Converted amounts (≈) assume the structure as drawn. The source made the active and inactive calls. The calls are words filed in the database; no cut-off is given here.

Experiments:
P388 = assay: Growth inhibition of mouse P388 cells after 48 hrs by Z1 Coulter particle counting; assay type: functional; details: P388, 48 h, read-out: ED50 (the source's name)
BXPC-3 = assay: Growth inhibition of human BxPC3 cells after 48 hrs by SRB assay; assay type: functional; details: BXPC-3, 48 h
Cryptococcus neoformans [1] = assay: Antimicrobial activity against Cryptococcus neoformans ATCC 90112 assessed as growth inhibition at 64 ug/mL by NCCLS broth microdilution assay; assay type: functional, organism-based
Neisseria gonorrhoeae [2] = assay: Antimicrobial activity against Neisseria gonorrhoeae ATCC 49226 assessed as growth inhibition at 64 ug/mL by NCCLS broth microdilution assay; assay type: functional, organism-based
DU-145 = assay: Growth inhibition of human DU145 cells after 48 hrs by SRB assay; assay type: functional; details: DU-145, 48 h
KM-20L2 = assay: Growth inhibition of human KM20L2 cells after 48 hrs by SRB assay; assay type: functional; details: KM-20L2, 48 h
Escherichia coli [3] = assay: Antimicrobial activity against Escherichia coli ATCC 25922 assessed as growth inhibition at 64 ug/mL by NCCLS broth microdilution assay; assay type: functional, organism-based
Streptococcus pneumoniae [4] = assay: Antimicrobial activity against Streptococcus pneumoniae ATCC 6303 assessed as growth inhibition at 64 ug/mL by NCCLS broth microdilution assay; assay type: functional, organism-based
Candida albicans [5] = assay: Antimicrobial activity against Candida albicans ATCC 90028 assessed as growth inhibition at 64 ug/mL by NCCLS broth microdilution assay; assay type: functional, organism-based
Micrococcus luteus [6] = assay: Antimicrobial activity against Micrococcus luteus Presque Isle 456 assessed as growth inhibition at 64 ug/mL by NCCLS broth microdilution assay; assay type: functional, organism-based
SF-268 = assay: Growth inhibition of human SF268 cells after 48 hrs by SRB assay; assay type: functional; details: SF-268, 48 h
Enterococcus faecalis [7] = assay: Antimicrobial activity against Enterococcus faecalis ATCC 29212 assessed as growth inhibition at 64 ug/mL by NCCLS broth microdilution assay; assay type: functional, organism-based
[8] = system: Stenotrophomonas maltophilia; assay: Antimicrobial activity against Stenotrophomonas maltophilia ATCC 13637 assessed as growth inhibition at 64 ug/mL by NCCLS broth microdilution assay; assay type: functional, organism-based
NCI-H460 = assay: Growth inhibition of human NCI-H460 cells after 48 hrs by SRB assay; assay type: functional; details: NCI-H460, 48 h
Enterobacter cloacae [9] = assay: Antimicrobial activity against Enterobacter cloacae ATCC 13047 assessed as growth inhibition at 64 ug/mL by NCCLS broth microdilution assay; assay type: functional, organism-based
Staphylococcus aureus [10] = assay: Antimicrobial activity against Staphylococcus aureus ATCC 29213 assessed as growth inhibition at 64 ug/mL by NCCLS broth microdilution assay; assay type: functional, organism-based
MCF7 = assay: Growth inhibition of human MCF7 cells after 48 hrs by SRB assay; assay type: functional; details: MCF7, 48 h
Enterococcus faecalis [11] = assay: Antimicrobial activity against Enterococcus faecalis ATCC 29212 by NCCLS broth microdilution assay; assay type: functional
Streptococcus pneumoniae [12] = assay: Antimicrobial activity against Streptococcus pneumoniae ATCC 6303 by NCCLS broth microdilution assay; assay type: functional
Micrococcus luteus [13] = assay: Antimicrobial activity against Micrococcus luteus Presque Isle 456 by NCCLS broth microdilution assay; assay type: functional
Neisseria gonorrhoeae [14] = assay: Antimicrobial activity against Neisseria gonorrhoeae ATCC 49226 by NCCLS broth microdilution assay; assay type: functional
Staphylococcus aureus [15] = assay: Antimicrobial activity against Staphylococcus aureus ATCC 29213 by NCCLS broth microdilution assay; assay type: functional
[16] = system: Stenotrophomonas maltophilia; assay: Antimicrobial activity against Stenotrophomonas maltophilia ATCC 13637 by NCCLS broth microdilution assay; assay type: functional
Cryptococcus neoformans [17] = assay: Antimicrobial activity against Cryptococcus neoformans ATCC 90112 by NCCLS broth microdilution assay; assay type: functional
Candida albicans [18] = assay: Antimicrobial activity against Candida albicans ATCC 90028 by NCCLS broth microdilution assay; assay type: functional
Enterobacter cloacae [19] = assay: Antimicrobial activity against Enterobacter cloacae ATCC 13047 by NCCLS broth microdilution assay; assay type: functional
Escherichia coli [20] = assay: Antimicrobial activity against Escherichia coli ATCC 25922 by NCCLS broth microdilution assay; assay type: functional

Row | SMILES | EC50 (P388) [µM] | GI50 (BXPC-3) [µM] | GI50 (DU-145) [µM] | GI50 (NCI-H460) [µM] | GI50 (MCF7) [µM] | MIC (Enterococcus faecalis [11]) [µg/mL] | MIC (Streptococcus pneumoniae [12]) [µg/mL] | MIC (Micrococcus luteus [13]) [µg/mL] | MIC (Neisseria gonorrhoeae [14]) [µg/mL] | MIC (Staphylococcus aureus [15]) [µg/mL] | MIC (Cryptococcus neoformans [17]) [µg/mL] | growth inhibition (GI) (Cryptococcus neoformans [1]) | GI50 (KM-20L2) [µM] | growth inhibition (GI) (Escherichia coli [3]) | growth inhibition (GI) (Candida albicans [5]) | GI50 (SF-268) [µM] | growth inhibition (GI) [8] | growth inhibition (GI) (Enterobacter cloacae [9]) | further results
1 | CNc1ncnc(N)c1N(C=O)C/C=C(\C)CC[C@]1(C)[C@@H](C)CC[C@@]2(C)C(COC(=O)c3ccc[nH]3)=CCC[C@@H]12 | > 18.2 | 4 | 4.6 | 3.6 | 3.1 | – | – | – | – | – | – | inactive | 2.9 | inactive | inactive | 3.1 | inactive | inactive | growth inhibition (GI) (Neisseria gonorrhoeae [2]): inactive; growth inhibition (GI) (Streptococcus pneumoniae [4]): inactive; growth inhibition (GI) (Micrococcus luteus [6]): inactive; growth inhibition (GI) (Enterococcus faecalis [7]): inactive; growth inhibition (GI) (Staphylococcus aureus [10]): inactive
2 | CNc1ncnc(N)c1N(C=O)C/C=C(\C)CC/C=C(\C)CC[C@@]1(C)C(C)=CCC[C@@H]1C | 15.7 | 5.9 | 6.8 | 6.8 | 5.9 | 8 (≈ 18.2 µM) | 32 (≈ 72.8 µM) | 4 (≈ 9.1 µM) | 16 (≈ 36.4 µM) | 8 (≈ 18.2 µM) | – | inactive | 7.1 | inactive | inactive | 3.9 | inactive | inactive | –
3 | CC1=CCC[C@H](C)[C@@]1(C)CC/C(C)=C/CC/C(C)=C/Cn1c[n+](C)c2ncnc(N)c21.[Cl-] [AGELINE A] | > 21.8 | 3.5 | 4.2 | 3.7 | 3.9 | 2 | 16 | < 0.5 | 2 | 2 | 2 | – | 3.5 | – | – | 3.5 | – | – | MIC [16]: 16 µg/mL; MIC (Candida albicans [18]): 4 µg/mL; MIC (Enterobacter cloacae [19]): 32 µg/mL; MIC (Escherichia coli [20]): 32 µg/mL
4 | CNc1ncnc(NC(C)C)c1N(C=O)C/C=C(\C)CC/C=C(\C)CC[C@@]1(C)C(C)=CCC[C@@H]1C [AXISTATIN 3] | 8.9 | 6 | 7.5 | 5.4 | 5.8 | 8 (≈ 16.6 µM) | 32 (≈ 66.4 µM) | 8 (≈ 16.6 µM) | 8 (≈ 16.6 µM) | 4 (≈ 8.3 µM) | 8 (≈ 16.6 µM) | – | 6.9 | inactive | inactive | 3.5 | inactive | inactive | –

Further lines, with some results ahead:

Row | EC50 (P388) [µM] | GI50 (BXPC-3) [µM] | GI50 (DU-145) [µM] | GI50 (NCI-H460) [µM] | GI50 (MCF7) [µM] | MIC (Enterococcus faecalis [11]) [µg/mL] | MIC (Streptococcus pneumoniae [12]) [µg/mL] | MIC (Micrococcus luteus [13]) [µg/mL] | MIC (Neisseria gonorrhoeae [14]) [µg/mL] | MIC (Staphylococcus aureus [15]) [µg/mL] | MIC (Cryptococcus neoformans [17]) [µg/mL] | SMILES | growth inhibition (GI) (Cryptococcus neoformans [1]) | GI50 (KM-20L2) [µM] | growth inhibition (GI) (Escherichia coli [3]) | growth inhibition (GI) (Candida albicans [5]) | GI50 (SF-268) [µM] | growth inhibition (GI) [8] | growth inhibition (GI) (Enterobacter cloacae [9]) | further results
5 | 19.8 | 4.8 | 4.8 | 4.6 | 5.7 | 1 (≈ 2.27 µM) | 8 (≈ 18.2 µM) | 1 (≈ 2.27 µM) | 1 (≈ 2.27 µM) | 1 (≈ 2.27 µM) | 1 (≈ 2.27 µM) | CNc1ncnc(N)c1N(C=O)C/C=C(\C)CC[C@]1(C)[C@@H](C)CC[C@@]2(C)C(C)=CCC[C@@H]12 [AXISTATIN 1] | – | 4.1 | inactive | inactive | 3.6 | inactive | inactive | –
6 | > 22.8 | 5.5 | 5 | 4.3 | 6.8 | 1 (≈ 2.27 µM) | 8 (≈ 18.2 µM) | 1 (≈ 2.27 µM) | 2 (≈ 4.55 µM) | 1 (≈ 2.27 µM) | 2 (≈ 4.55 µM) | CNc1ncnc(N)c1N(C=O)C/C=C(\C)CC[C@@]1(C)[C@H](C)CC[C@@]2(C)C(C)=CCC[C@H]12 [AXISTATIN 2] | – | 4.1 | inactive | inactive | 3.9 | inactive | inactive | –
